Source: US20250127906A1, “SMALL-MOLECULE DEGRADERS OF CDK8 AND CDK19” (University of South Carolina, priority 2021, published 2025)

Target: CDK8 (Homo sapiens, UniProt P49336)
Assay: CDK8 degradation in HEK-293 cells (Western blot, normalized by GAPDH)
Format: cell-based
Design: endogenous in cells; host or cells: HEK-293
Settings: for % CDK8 remaining: HEK-293 cells, 24 hours, tested at 1 μM
Method: Table 1 presents the structures of 35 different chimeras that have been synthesized, together with their effects (at 1 μM or 0.3 μM concentrations) on CDK8 degradation in HEK-293 cells. The synthesis schemes of all the compounds are described below. CDK8 degradation was measured by Western blot analysis of RIPA lysates of HEK-293cells treated with or without the test compound for 24 hours, using antibodies against CDK8 (Santa Cruz sc-1521) and housekeeping protein GAPDH (Santa Cruz sc-32233) (loading control) Protein bands on immunoblotted PVDF membranes were visualized with Western Lighting Plus ECL detection reagent (Perkin Elmer, Waltham, MA, USA) using ChemiDoc Touch™ (Bio-Rad). Image processing and densitometry analysis were performed using ImageLab software (Bio-Rad) to quantify the CDK8 protein levels (normalized by GAPDH) and evaluate the effects of compound treatment.
FIGS. 2F and 2G show the effects of different concentrations of potent Senexin C- and BI-1347-based PROTACs on CDK8 and CDK19 degradation in HEK-293cells. Based on these assays, we calculated DC50 values that correspond to PROTAC concentrations inducing degradation of CDK8 and CDK19 to the half of protein level in untreated cells. The corresponding CDK8 DC50 values were 46 nM for IA7843, 6.6 nM for IA7882 and 2.8 nM for IA7886, and CDK19 DC50 values were 1 μM for IA7843, 25 nM for IA7882 and 10 nM for IA7886.

Chain of CDK8 (P49336 whole entry): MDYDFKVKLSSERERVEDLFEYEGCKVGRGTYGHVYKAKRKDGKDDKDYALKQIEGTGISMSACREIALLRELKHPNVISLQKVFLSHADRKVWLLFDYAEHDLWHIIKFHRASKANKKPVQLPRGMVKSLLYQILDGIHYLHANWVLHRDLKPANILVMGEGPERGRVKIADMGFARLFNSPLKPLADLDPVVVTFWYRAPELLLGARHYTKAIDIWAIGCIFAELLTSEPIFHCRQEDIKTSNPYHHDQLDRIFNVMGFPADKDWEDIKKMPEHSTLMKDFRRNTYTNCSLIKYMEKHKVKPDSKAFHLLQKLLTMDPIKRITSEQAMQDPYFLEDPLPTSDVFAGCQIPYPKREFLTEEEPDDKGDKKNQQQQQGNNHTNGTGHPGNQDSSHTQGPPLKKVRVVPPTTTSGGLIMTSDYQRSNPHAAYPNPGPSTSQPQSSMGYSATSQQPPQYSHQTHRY
Chain of CDK8 (P24863 whole entry partner): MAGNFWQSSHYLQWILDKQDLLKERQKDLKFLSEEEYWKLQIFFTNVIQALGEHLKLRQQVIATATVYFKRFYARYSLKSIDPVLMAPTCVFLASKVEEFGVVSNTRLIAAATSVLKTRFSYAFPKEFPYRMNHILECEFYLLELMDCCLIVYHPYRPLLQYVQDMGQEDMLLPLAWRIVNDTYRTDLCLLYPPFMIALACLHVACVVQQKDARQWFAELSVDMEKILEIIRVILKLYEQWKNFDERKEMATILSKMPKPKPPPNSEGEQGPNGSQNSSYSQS

Row | % CDK8 remaining [%] | induction of CDK8 degradation by single agents (HEK-293, HP8580 200 nM and 1 μM, pomalidomide 5 μM, Senexin C 5 μM) | Structure (SMILES) | effect of co-treatment on HP8580-mediated CDK8 degradation (HEK-293, with MG132 5 μM, pomalidomide 5 μM or Senexin C 5 μM)
1 | 69 |  | Cc1ncsc1-c1ccc(CNC(=O)[C@@H]2C[C@@H](O)CN2C(=O)[C@@H](NC(=O)CCCCCCCCC(=O)N2CCN(C(=O)c3ccc4cc(CCNc5ccnc6ccc(C#N)cc56)ccc4c3)CC2)C(C)(C)C)cc1 (racemic) [IA7862, rac-(2S,4R)-4-hydroxy-N-[[4-(4-methylthiazol-5-yl)phenyl]methyl]-1-[rac-(2S)-2-[[10-[4-[6-[2-[(6-cyano-4-quinolyl)amino]ethyl]naphthalene-2-carbonyl]piperazin-1-yl]-10-oxo-decanoyl]amino]-3,3-dimethyl-butanoyl]pyrrolidine-2-carboxamide] | 
2 | 74 |  | CN(CCCNC(=O)CCOCCOCCOCCOCCNc1cccc2c1C(=O)N(C1CCC(=O)NC1=O)C2=O)C(=O)c1ccc(N2CCCN(c3ccnc4sc(C(N)=O)c(N)c34)CC2)cc1 (stereo not shown) [HP8553] | 
3 | 77 |  | CN(CCCNC(=O)CCOCCOCCOCCNc1cccc2c1C(=O)N(C1CCC(=O)NC1=O)C2=O)C(=O)c1ccc(N2CCCN(c3ccnc4sc(C(N)=O)c(N)c34)CC2)cc1 (stereo not shown) [HP8575, 3-amino-4-[4-[4-[3-[3-[2-[2-[2-[[2-(2,6-dioxo-3-piperidyl)-1,3-dioxo-isoindolin-4-yl]amino]ethoxy]ethoxy]ethoxy]propanoylamino]propyl-methyl-carbamoyl]phenyl]-1,4-diazepan-1-yl]thieno[2,3-b]pyridine-2-carboxamide] | 
4 | 82 |  | CN(CCCNC(=O)CCOCCOCCNc1cccc2c1C(=O)N(C1CCC(=O)NC1=O)C2=O)C(=O)c1ccc(N2CCCN(c3ccnc4sc(C(N)=O)c(N)c34)CC2)cc1 (stereo not shown) [HP8578, 3-amino-4-[4-[4-[3-[3-[2-[2-[[2-(2,6-dioxo-3-piperidyl)-1,3-dioxo-isoindolin-4-yl]amino]ethoxy]ethoxy]propanoylamino]propyl-methyl-carbamoyl]phenyl]-1,4-diazepan-1-yl]thieno[2,3-b]pyridine-2-carboxamide] | 
5 | 29 |  | N#Cc1ccc2nccc(NCCc3ccc4cc(C(=O)N5CCN(CCCNC(=O)CCOCCOCCOCCOCCNc6cccc7c6C(=O)N(C6CCC(=O)NC6=O)C7=O)CC5)ccc4c3)c2c1 (stereo not shown) [HP8579] | 
6 | 20 | induced CDK8 degradation | N#Cc1ccc2nccc(NCCc3ccc4cc(C(=O)N5CCN(C(=O)CCOCCOCCOCCOCCNc6cccc7c6C(=O)N(C6CCC(=O)NC6=O)C7=O)CC5)ccc4c3)c2c1 (stereo not shown) [HP8580, 4-[2-[6-[4-[3-[2-[2-[2-[2-[[2-(2,6-dioxo-3-piperidyl)-1,3-dioxo-isoindolin-4-yl]amino]ethoxy]ethoxy]ethoxy]ethoxy]propanoyl]piperazine-1-carbonyl]-2-naphthyl]ethylamino]quinoline-6-carbonitrile] | reversed by proteasome inhibition with MG132 as well as by competition with pomalidomide or Senexin C
7 | 36 |  | CN(CCCNC(=O)CCOCCOCCOCCOCCNc1cccc2c1C(=O)N(C1CCC(=O)NC1=O)C2=O)C(=O)c1ccc2cc(CCNc3ccnc4ccc(C#N)cc34)ccc2c1 (stereo not shown) [HP8581, 6-[2-[(6-cyano-4-quinolyl)amino]ethyl]-N-[3-[3-[2-[2-[2-[2-[[2-(2,6-dioxo-3-piperidyl)-1,3-dioxo-isoindolin-4-yl]amino]ethoxy]ethoxy]ethoxy]ethoxy]propanoylamino]propyl]-N-methyl-naphthalene-2-carboxamide] | 
8 | 21 |  | N#Cc1ccc2nccc(NCCc3ccc4cc(C(=O)N5CCN(C(=O)CCOCCOCCOCCNc6cccc7c6C(=O)N(C6CCC(=O)NC6=O)C7=O)CC5)ccc4c3)c2c1 (stereo not shown) [HV5957, 4-[2-[6-[4-[3-[2-[2-[2-[[2-(2,6-dioxo-3-piperidyl)-1,3-dioxo-isoindolin-4-yl]amino]ethoxy]ethoxy]ethoxy]propanoyl]piperazine-1-carbonyl]-2-naphthyl]ethylamino]quinoline-6-carbonitrile] | 
9 | 27 |  | N#Cc1ccc2nccc(NCCc3ccc4cc(C(=O)N5CCN(C(=O)CCOCCOCCNc6cccc7c6C(=O)N(C6CCC(=O)NC6=O)C7=O)CC5)ccc4c3)c2c1 (stereo not shown) [HV5958, 4-[2-[6-[4-[3-[2-[2-[[2-(2,6-dioxo-3-piperidyl)-1,3-dioxo-isoindolin-4-yl]amino]ethoxy]ethoxy]propanoyl]piperazine-1-carbonyl]-2-naphthyl]ethylamino]quinoline-6-carbonitrile] | 
10 | 100 |  | CN1C(=O)CCC(N2C(=O)c3cccc(NCCOCCOCCOCCOCCC(=O)N4CCN(C(=O)c5ccc6cc(CCNc7ccnc8ccc(C#N)cc78)ccc6c5)CC4)c3C2=O)C1=O (stereo not shown) [IA7803, 4-[2-[6-[4-[3-[2-[2-[2-[2-[[2-(1-methyl-2,6-dioxo-3-piperidyl)-1,3-dioxo-isoindolin-4-yl]amino]ethoxy]ethoxy]ethoxy]ethoxy]propanoyl]piperazine-1-carbonyl]-2-naphthyl]ethylamino]quinoline-6-carbonitrile] | 
11 | 100 |  | Cc1ncsc1-c1ccc(CNC(=O)[C@@H]2C[C@@H](O)CN2C(=O)[C@@H](NC(=O)CCOCCOCCOCCOCCC(=O)N2CCN(C(=O)c3ccc4cc(CCNc5ccnc6ccc(C#N)cc56)ccc4c3)CC2)C(C)(C)C)cc1 [IA7807, (2S,4R)-1-((S)-2-(tert-butyl)-19-(4-(6-(2-((6-cyanoquinolin-4-yl)amino)ethyl)-2-naphthoyl)piperazin-1-yl)-4,19-dioxo-7,10,13,16-tetraoxa-3-azanonadecanoyl)-4-hydroxy-N-(4-(4-methylthiazol-5-yl)benzyl) pyrrolidine-2-carboxamide] | 
12 | 29 |  | N#Cc1ccc2nccc(NCCc3ccc4cc(C(=O)N5CCN(C(=O)CCOCCOCCOCCOCCOCCNc6cccc7c6C(=O)N(C6CCC(=O)NC6=O)C7=O)CC5)ccc4c3)c2c1 (stereo not shown) [IA7812, 4-[2-[6-[4-[3-[2-[2-[2-[2-[2-[[2-(2,6-dioxo-3-piperidyl)-1,3-dioxo-isoindolin-4-yl]amino]ethoxy]ethoxy]ethoxy]ethoxy]ethoxy]propanoyl]piperazine-1-carbonyl]-2-naphthyl]ethylamino]quinoline-6-carbonitrile] | 
13 | 28 |  | N#Cc1ccc2nccc(NCCc3ccc4cc(C(=O)N5CCN(C(=O)CCOCCOCCOCCOCCOCCOCCNc6cccc7c6C(=O)N(C6CCC(=O)NC6=O)C7=O)CC5)ccc4c3)c2c1 (stereo not shown) [IA7813, 4-[2-[6-[4-[3-[2-[2-[2-[2-[2-[2-[[2-(2,6-dioxo-3-piperidyl)-1,3-dioxo-isoindolin-4-yl]amino]ethoxy]ethoxy]ethoxy]ethoxy]ethoxy]ethoxy]propanoyl]piperazine-1-carbonyl]-2-naphthyl]ethylamino]quinoline-6-carbonitrile] | 
14 | 59 |  | CN(CCCNC(=O)CCOCCOCCOCCOCCOCCOCCNc1cccc2c1C(=O)N(C1CCC(=O)NC1=O)C2=O)C(=O)c1ccc(N2CCCN(c3ccnc4sc(C(N)=O)c(N)c34)CC2)cc1 (stereo not shown) [IA7814, 3-amino-4-[4-[4-[3-[3-[2-[2-[2-[2-[2-[2-[[2-(2,6-dioxo-3-piperidyl)-1,3-dioxo-isoindolin-4-yl]amino]ethoxy]ethoxy]ethoxy]ethoxy]ethoxy]ethoxy]propanoylamino]propyl-methyl-carbamoyl]phenyl]-1,4-diazepan-1-yl]thieno[2,3-b]pyridine-2-carboxamide] | 
15 | 66 |  | N#Cc1ccc2nccc(NCCc3ccc4cc(C(=O)N5CCN(C(=O)CCNC(=O)CCOCCOCCOCCNc6cccc7c6C(=O)N(C6CCC(=O)NC6=O)C7=O)CC5)ccc4c3)c2c1 (stereo not shown) [IA7819, N-[3-[4-[6-[2-[(6-cyano-4-quinolyl)amino]ethyl]naphthalene-2-carbonyl]piperazin-1-yl]-3-oxo-propyl]-3-[2-[2-[2-[[2-(2,6-dioxo-3-piperidyl)-1,3-dioxo-isoindolin-4-yl]amino]ethoxy]ethoxy]ethoxy]propanamide] | 
16 | 65 |  | N#Cc1ccc2nccc(NCCc3ccc4cc(C(=O)N5CCN(C(=O)CCNC(=O)CCOCCOCCOCCOCCNc6cccc7c6C(=O)N(C6CCC(=O)NC6=O)C7=O)CC5)ccc4c3)c2c1 (stereo not shown) [IA7822, N-[3-[4-[6-[2-[(6-cyano-4-quinolyl)amino]ethyl]naphthalene-2-carbonyl]piperazin-1-yl]-3-oxo-propyl]-3-[2-[2-[2-[2-[[2-(2,6-dioxo-3-piperidyl)-1,3-dioxo-isoindolin-4-yl]amino]ethoxy]ethoxy]ethoxy]ethoxy]propanamide] | 
17 | 65 |  | N#Cc1ccc2nccc(NCCc3ccc4cc(C(=O)N5CCN(C(=O)CCOCCOCCOCCNC(=O)CCNc6cccc7c6C(=O)N(C6CCC(=O)NC6=O)C7=O)CC5)ccc4c3)c2c1 (stereo not shown) [IA7830, N-[2-[2-[2-[3-[4-[6-[2-[(6-cyano-4-quinolyl)amino]ethyl]naphthalene-2-carbonyl]piperazin-1-yl]-3-oxo-propoxy]ethoxy]ethoxy]ethyl]-3-[[2-(2,6-dioxo-3-piperidyl)-1,3-dioxo-isoindolin-4-yl]amino]propanamide] | 
